The target of this series is ATXN2. Put plainly: mouse, dose not given. To be noted: ASO.

HELM strings list units from the 5' end as sugar, base in round brackets, then linkage (d deoxyribose, r ribose, m 2'-O-methyl, p phosphodiester). Strings are as the collection lists them; they lack the last nucleoside at the 3' end of the tested compound. [moe] = 2'-O-(2-methoxyethyl) (MOE); [sp] = phosphorothioate linkage; [m5C] = 5-methylcytosine

These results are taken from the OligoGym collection.

In turn, “RNA1{[moe](G)[sp].[moe](T)p.[moe](A)p.[moe](T)p.[moe](G)p.d(T)[sp].d(T)[sp].d(T)[sp].d(G)[sp].d(T)[sp].d([m5C])[sp].d(T)[sp].d(G)[sp].d(T)[sp].d([m5C])[sp].[moe](T)p.[moe](T)p.[moe](A)[sp].[moe](T)}$$$$ (last 3' nucleoside missing)” gave a 3 h FOB score of 6 score 0-7.
The same measure for “RNA1{[moe](T)[sp].[moe](T)p.[moe](T)p.[moe](G)p.[moe](T)p.d(T)[sp].d(A)[sp].d([m5C])[sp].d(T)[sp].d(G)[sp].d(T)[sp].d(T)[sp].d(T)[sp].d([m5C])[sp].d(G)[sp].[moe](A)p.[moe]([m5C])p.[moe]([m5C])[sp].[moe](T)}$$$$ (last 3' nucleoside missing)”: 5 score 0-7; for “RNA1{[moe](T)[sp].[moe](G)[sp].[moe]([m5C])[sp].[moe](A)[sp].[moe](T)[sp].d(A)[sp].d(G)[sp].d(A)[sp].d(T)[sp].d(T)[sp].d([m5C])[sp].d([m5C])[sp].d(A)[sp].d(T)[sp].d([m5C])[sp].[moe](A)[sp].[moe](A)[sp].[moe](A)[sp].[moe](A)}$$$$ (last 3' nucleoside missing)”: 7 score 0-7.
The substance “RNA1{[moe]([m5C])[sp].[moe](T)p.[moe](G)p.[moe](G)p.[moe](T)p.d(T)[sp].d([m5C])[sp].d([m5C])[sp].d(T)[sp].d(T)[sp].d(A)[sp].d([m5C])[sp].d(A)[sp].d(A)[sp].d(T)[sp].[moe](T)p.[moe](A)p.[moe](T)[sp].[moe]([m5C])}$$$$ (last 3' nucleoside missing)” gave a 3 h FOB score of 1 score 0-7.
The same measure for “RNA1{[moe](G)[sp].[moe](T)p.[moe](G)p.[moe](G)p.[moe](T)[sp].d(G)[sp].d(T)[sp].d(G)[sp].d([m5C])[sp].d(G)[sp].d([m5C])[sp].d(A)[sp].d(T)[sp].[moe](G)p.[moe](T)p.[moe](A)[sp].[moe](G)}$$$$ (last 3' nucleoside missing)”: 6.75 score 0-7; for “RNA1{[moe](A)[sp].[moe](A)p.[moe]([m5C])p.[moe]([m5C])p.[moe](A)p.d([m5C])[sp].d(T)[sp].d(G)[sp].d(A)[sp].d(T)[sp].d(T)[sp].d(T)[sp].d(A)[sp].d(T)[sp].d(A)[sp].[moe]([m5C])p.[moe](A)p.[moe]([m5C])[sp].[moe](T)}$$$$ (last 3' nucleoside missing)”: 2.5 score 0-7; for “RNA1{[moe](G)[sp].[moe]([m5C])p.[moe](T)p.[moe](G)p.[moe](A)p.d(T)[sp].d(G)[sp].d(T)[sp].d(G)[sp].d(T)[sp].d(T)[sp].d([m5C])[sp].d(A)[sp].d(T)[sp].d(G)[sp].[moe](A)p.[moe]([m5C])p.[moe](T)[sp].[moe](T)}$$$$ (last 3' nucleoside missing)”: 4.5 score 0-7.
The same measure for “RNA1{[moe](T)[sp].[moe](A)p.[moe](T)p.[moe](G)p.[moe](A)p.d(G)[sp].d(G)[sp].d(G)[sp].d(A)[sp].d([m5C])[sp].d(T)[sp].d(A)[sp].d(G)[sp].d(A)[sp].d(G)[sp].[moe]([m5C])p.[moe](A)p.[moe](T)[sp].[moe]([m5C])}$$$$ (last 3' nucleoside missing)”: 6.25 score 0-7.
For the substance “RNA1{[moe](A)[sp].[moe](A)p.[moe](G)p.[moe]([m5C])p.[moe](T)p.d(T)[sp].d(A)[sp].d(G)[sp].d(A)[sp].d(G)[sp].d(T)[sp].d(T)[sp].d(T)[sp].d(T)[sp].d(T)[sp].[moe](G)p.[moe]([m5C])p.[moe]([m5C])[sp].[moe](T)}$$$$ (last 3' nucleoside missing)”, the 3 h FOB score was 4 score 0-7.
“RNA1{[moe](G)[sp].[moe](T)p.[moe](T)p.[moe]([m5C])p.[moe](A)p.d(T)[sp].d([m5C])[sp].d(T)[sp].d(T)[sp].d(T)[sp].d(T)[sp].d([m5C])[sp].d([m5C])[sp].d(T)[sp].d(T)[sp].[moe]([m5C])p.[moe](A)p.[moe](G)[sp].[moe](A)}$$$$ (last 3' nucleoside missing)” returned a 3 h FOB score of 0 score 0-7.
